Our source for the TGI and GI50 values is PubChem BioAssay (NCI).

Structures are written as SMILES. Values joined by “and” are separate entries in the source; they are usually repeats but may differ in a detail not shown here. Identical values can stand only once.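 Method: 48-hour compound exposure of cells in 96-well plates, five concentrations, linear interpolation of endpoints. Here, GI50 denotes the concentration required for 50% inhibition of growth. At the TGI there is no net growth.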

Among the test systems are SW-620 colon; ACHN renal; KM20L2 colon; LXFL 529 NSCLC; SF-539 CNS; RXF 393 renal; NCI-H460 lung; 786-0 renal; UO-31 renal; HCT-116 colon; SK-MEL-28 melanoma.
Holding throughout (assay): inhibition of tumour cell growth, NCI panel, 48 h

As to `CN(C)CC(C)(C)C(=O)/C=C/c1ccccc1`, the TGI amounted to 31.1 µM in the experiment on SW-620 colon; 33.3 µM in the experiment with ACHN renal; 28.8 µM in the experiment on KM20L2 colon; 24.9 µM in the experiment with LXFL 529 NSCLC; 32.3 µM in the experiment on SF-539 CNS; 24.5 µM with RXF 393 renal. The TGI in the experiment with NCI-H460 lung came to 74.6 µM; in the experiment with 786-0 renal, 29.9 µM; with UO-31 renal, 23 µM; in the experiment with HCT-116 colon, 27.4 µM; with SK-MEL-28 melanoma, 31 µM.
`Cc1cc(N)c2cc(NC(=O)CCCCCCCCC(=O)Nc3ccc4nc(C)cc(N)c4c3)ccc2n1`: the TGI with SW-620 colon was greater than 100 µM; with ACHN renal it was greater than 100 µM; with KM20L2 colon, greater than 74.3 µM; in the experiment on LXFL 529 NSCLC, greater than 100 µM; with SF-539 CNS it was 26.5 µM; with RXF 393 renal it was greater than 100 µM. Also, the TGI with NCI-H460 lung is greater than 100 µM; in the experiment with 786-0 renal it was greater than 100 µM; in the experiment on UO-31 renal it was greater than 100 µM; in the experiment with HCT-116 colon, greater than 79 µM; with SK-MEL-28 melanoma, 97 µM.
As to `C[S+](C)C1(c2ccccc2)C(=O)c2ccccc2C1=O`, the TGI with SW-620 colon is greater than 100 µM; in the experiment on ACHN renal, greater than 100 µM; with KM20L2 colon, greater than 100 µM; in the experiment with LXFL 529 NSCLC it was greater than 100 µM; in the experiment on SF-539 CNS, greater than 68.1 µM; with RXF 393 renal, greater than 100 µM. Besides, the TGI with NCI-H460 lung was greater than 100 µM; in the experiment on 786-0 renal, greater than 100 µM; in the experiment with UO-31 renal, greater than 56.5 µM; in the experiment with HCT-116 colon, greater than 100 µM; in the experiment with SK-MEL-28 melanoma, greater than 100 µM.
Take `COc1cccc2c1C(=O)c1c(O)c3c(c(O)c1C2=O)C[C@@](O)(C(=O)CO)CC3OC1CC(NCCCCC(OC(C)=O)OC(C)=O)C(O)C(C)O1` (some centres undefined): the GI50 is 0.00175 µM in the experiment on SW-620 colon; 0.000858 µM with KM20L2 colon; 0.00263 µM in the experiment on LXFL 529 NSCLC; 0.00296 µM in the experiment on SF-539 CNS; 0.00269 µM in the experiment with RXF 393 renal. Moreover, the TGI in the experiment on SW-620 colon is greater than 1 µM; in the experiment with ACHN renal it was 0.0057 µM; with KM20L2 colon it was 0.00875 µM; with SF-539 CNS, 0.00421 µM and 0.0374 µM; in the experiment with RXF 393 renal, 0.00356 µM and 0.00642 µM; in the experiment on NCI-H460 lung, 0.319 µM. For the same compound, the values for the TGI in the experiment with 786-0 renal and in the experiment with UO-31 renal were greater than 1 µM and 0.0043 µM, respectively.
Regarding `CN(C)CCSc1nccc(-c2ccc(-c3ccnc(SCCN(C)C)n3)s2)n1`, the TGI with SW-620 colon turned out to be 18.1 µM; with KM20L2 colon, 23.6 µM; in the experiment with SF-539 CNS, 20.4 µM; in the experiment on RXF 393 renal it was 9.99 µM; with NCI-H460 lung, 9.86 µM; in the experiment with UO-31 renal it was 16.6 µM. Moreover, the values for the TGI with HCT-116 colon and with SK-MEL-28 melanoma were 13.1 µM and 36.2 µM, respectively.
`CCC(C)Cn1c(C)nc2c1C(=O)c1ccccc1C2=O` (centres undefined): the TGI is greater than 100 µM with SW-620 colon; greater than 100 µM in the experiment on ACHN renal; greater than 100 µM in the experiment with KM20L2 colon; greater than 100 µM in the experiment on LXFL 529 NSCLC; 59.5 µM in the experiment on SF-539 CNS; greater than 100 µM in the experiment with RXF 393 renal. Besides, the TGI with NCI-H460 lung was 34.3 µM; in the experiment with 786-0 renal it was 75.4 µM; in the experiment on UO-31 renal, 87.8 µM; in the experiment with SK-MEL-28 melanoma it was greater than 100 µM.
